Measurements published in patent publication US20130316963A1, “INNATE DEFENCE REGULATORY PEPTIDE COMPOSITIONS FOR TREATMENT OF ARTHRITIS” (UNIVERSITY OF MANITOBA, priority 2010, published 2013).
Residues, ends and D or L forms follow the SMILES beside them.

Tested on: human FLS cells
Test: Cellular cytotoxicity by release of lactate dehydrogenase (LDH)
Type: cell-based
Conditions: presence and absence of cytokine stimulation, 24 hr; IDR-1002 100 μg/ml, IDR-1 200 μg/ml; data not shown
Method: Synovial tissues were obtained from patients with OA in accordance to a protocol by the Institutional Review Board at the University of Manitoba. FLS cells were isolated from the synovial tissues following the procedure taught by Kammouni et al. (2007, Regulation of apoptosis in fibroblast-like synoviocytes by the hypoxia-induced Bcl-2 family member Bcl-2/adenovirus E1B 19-kd protein-interacting protein 3. Arthritis Rheum. 56:2854-2863). […] Cellular cytotoxicity was evaluated by monitoring the release of lactate dehydrogenase (LDH) employing a colorimetric detection kit (Roche Diagnostics, Laval, QC, Canada).
Inflammatory cytokines TNF-α and IL-1β stimulate cells types such as FLS, chondrocytes and macrophages resulting in the production of MMP-3 in arthritic joints. […] In this study we evaluated the impact of IDR peptides on TNF-α and IL-1β-induced MMP-3 production. […] The peptides were not cytotoxic to the FLS cells in the presence and absence of cytokine stimulation, as determined by monitoring the tissue culture supernatants for the release of LDH after 24 hr of stimulation (data not shown). Tissue culture supernatants were monitored after 24 hr of stimulation for MMP-3 production by ELISA. […]

## CC[C@H](C)[C@H](NC(=O)[C@H](CCCNC(=N)N)NC(=O)[C@H](CO)NC(=O)[C@@H](N)CCCCN)C(=O)N[C@H](C(=O)N1CCC[C@H]1C(=O)N[C@@H](C)C(=O)N[C@H](C(=O)N1CCC[C@H]1C(=O)N[C@H](C(=O)N[C@@H](CO)C(=O)N[C@@H](CC(C)C)C(=O)N[C@@H](CC(C)C)C(=O)O)C(C)C)[C@@H](C)CC)C(C)C [IDR-1, KSRIVPAIPVSLL, reference compound] (H-KSRIVPAIPVSLL-OH)
  cytotoxicity to FLS cells (release of LDH): not cytotoxic
